We go through 1 compound from patent publication EP2736485B1, “AQUEOUS SOLUTIONS OF […], IN […] SOLUTIONS” (Universität Regensburg, priority 2011, dated 2013).

The data set can be described thus: Solubilisation of active ingredient in aqueous surfactant solution (stirring overnight at room temperature). Format: physicochemical. The conditions noted are these: Aqua bidest. ad 1,00 ml. Here is the method:
Das einfache grundlegende System besteht aus einem erfindungsgemäß geeigneten Tensid, einem lipophilen Wirkstoff und Wasser. Durch Lösen der Bestandteile mittels Rühren entsteht ein vorzugsweise klares, kolloidales System, in welchem die lipophile Substanz in Mizellen verkapselt gelöst ist.
Wirkstoff und Tensid wurden eingewogen und um 1ml Aqua bidest. ergänzt. Dieser Ansatz wurde über Nacht durch Rühren bei Raumtemperatur (21°C) gelöst. […] Die Messungen wurden mittels Photonenkorellationsspektrometrie durchgeführt.
Die Herstellung erfolgte analog wie bereits unter Beispiel 1 beschrieben.

Regarding `CCCC1O[C@@H]2C[C@H]3[C@@H]4CCC5=CC(=O)C=C[C@]5(C)[C@H]4[C@@H](O)C[C@]3(C)[C@]2(C(=O)CO)O1` (stereo partly shown) [Budesonid], the “Budesonid in Lösung” value is listed as 0,09 mg (Solutol® HS15 10,00 mg), 0,41 mg (Solutol® HS15 50,00 mg), 0,77 mg (Solutol® HS15 100,00 mg) and 1,32 mg (Solutol® HS15 200,00 mg).
